In brackets after ≈: the same amount, converted by molar mass. Activity calls are given as the source filed them. No cut-off for these calls is given here. Residues, ends and D or L forms follow the SMILES beside them.
Assays:
Staphylococcus aureus [1] = test: Antibiofilm activity against methicillin-resistant Staphylococcus aureus SAP 0017 assessed as biofilm eradication concentration by Calgary biofilm device assay; type: functional
Staphylococcus aureus [2] = test: Antibiofilm activity against methicillin-resistant Staphylococcus aureus USA300 LAC assessed as rough surfaces sprinkled with debris at 16 ug/ml by scanning electron microscopy based assay; type: functional, organism-based; conditions: MRSA USA300 LAC, dose 16.0 µg/ml
Staphylococcus aureus [3] = test: Antibiofilm activity against methicillin-resistant Staphylococcus aureus USA300 LAC assessed as inhibition of CV-staining/biomass formation measured after overnight incubation by biofilm inhibition assay; type: functional, MRSA USA300 LAC
[4] = Immunomodulatory activity in PBMC (unknown origin) assessed as reduction in LPS-induced IL-10 level by ELISA; type: functional; parameters: scale not given: the % may be the effect or the level left
Staphylococcus aureus [5] = test: Antibacterial activity against methicillin-resistant Staphylococcus aureus USA300 LAC assessed as measuring killing rate at 16 ug/ml measured with in 30 mins by time kill assay; type: functional, organism-based; conditions: MRSA USA300 LAC, dose 16.0 µg/ml
Enterococcus faecium [6] = test: Antibiofilm activity against Enterococcus faecium assessed as reduction in viable biofilm cell counts by TCC bacterial metabolic assay; type: functional, organism-based
Staphylococcus aureus [7] = test: Antibacterial activity against methicillin resistant Staphylococcus aureus USA300 LAC assessed as change in susceptibility at sub-MIC treated over 14 serial passages by resistance development assay; type: functional, organism-based; conditions: MRSA USA300 LAC
Staphylococcus aureus [8] = test: Antimicrobial activity against methicillin-resistant Staphylococcus aureus SAP 0017 assessed as inhibition of bacterial growth incubated for 18 to 20 hrs by broth microdilution assay; type: functional; conditions: time 18-20 hrs
Staphylococcus aureus [9] = test: Antimicrobial activity against methicillin-resistant Staphylococcus aureus USA300 LAC assessed as inhibition of bacterial growth incubated for 18 to 20 hrs by broth microdilution assay; type: functional; conditions: MRSA USA300 LAC, time 18-20 hrs
[10] = tested on: Staphylococcus epidermidis; test: Antibiofilm activity against Staphylococcus epidermidis ATCC14990 assessed as disruption of mature biofilms by TCC bacterial metabolic assay; type: functional
Staphylococcus aureus [11] = test: Antibiofilm activity against methicillin-resistant Staphylococcus aureus SAP 0017 assessed as inhibition of CV-staining/biomass formation measured after overnight incubation by biofilm inhibition assay; type: functional
Enterococcus faecium [12] = test: Antibiofilm activity against Enterococcus faecium assessed as biofilm eradication concentration by Calgary biofilm device assay; type: functional
Staphylococcus aureus [13] = test: Antibiofilm activity against methicillin resistant Staphylococcus aureus in N/TERT-based epidermal model assessed as reduction in bacterial clusters by H&E staining based histological analysis; type: functional, organism-based
Staphylococcus aureus [14] = test: Antibiofilm activity against methicillin-resistant Staphylococcus aureus USA300 LAC assessed as killing biofilm cells at 16 ug/ml incubated for 4 hrs after SYTO9/PI staining by confocal microscopy; type: functional, MRSA USA300 LAC; conditions: dose 16 µg/ml
Enterococcus faecium [15] = test: Antimicrobial activity against Enterococcus faecium assessed as inhibition of bacterial growth incubated for 18 to 20 hrs by broth microdilution assay; type: functional; conditions: time 18-20 hrs
Staphylococcus aureus [16] = test: Antibiofilm activity against methicillin-resistant Staphylococcus aureus USA300 LAC assessed as disruption of mature biofilms by TCC bacterial metabolic assay; type: functional, MRSA USA300 LAC
Staphylococcus aureus [17] = test: Antibiofilm activity against methicillin-resistant Staphylococcus aureus SAP 0017 assessed as disruption of mature biofilms by TCC bacterial metabolic assay; type: functional
[18] = Toxicity in Staphylococcus epidermidis infected CD-1 mouse assessed as reduction in abscess size at 2.5 mg/kg, ILES after 3 days; type: organism-based; parameters: scale not given: the % may be the effect or the level left; conditions: in vivo, other, 72 h, time 3 day
[19] = (§1) Immunomodulatory activity in PBMC (unknown origin) assessed as reduction in LPS-induced IL-1beta level by ELISA; type: functional; parameters: scale not given: the % may be the effect or the level left
[20] = tested on: Staphylococcus epidermidis; test: Antibiofilm activity against Staphylococcus epidermidis ATCC14990 assessed as inhibition of CV-staining/biomass formation measured after overnight incubation by biofilm inhibition assay; type: functional
[21] = tested on: Staphylococcus epidermidis; test: Antibiofilm activity against Staphylococcus epidermidis ATCC14990 assessed as biofilm eradication concentration by Calgary biofilm device assay; type: functional
[22] = Cytotoxicity against PBMC (unknown origin) at 100 ug incubated for 24 hrs by lactate dehydrogenase assay; type: tissue-based; conditions: dose 100 µg
PBMC [23] = test: Immunomodulatory activity in PBMC (unknown origin) assessed as increase in MCP-1 production level at 12.5 ug/ml incubated for 24 hrs by ELISA; type: functional, tissue-based; conditions: dose 12.5 µg/ml
Enterococcus faecium [24] = test: Antibiofilm activity against Enterococcus faecium assessed as inhibition of CV-staining/biomass formation measured after overnight incubation by biofilm inhibition assay; type: functional
[25] = tested on: Staphylococcus epidermidis; test: Antimicrobial activity against Staphylococcus epidermidis ATCC14990 assessed as inhibition of bacterial growth incubated for 18 to 20 hrs by broth microdilution assay; type: functional; conditions: time 18-20 hrs
[26] = Toxicity in methicillin resistant Staphylococcus aureus USA300 infected CD-1 mouse assessed as reduction in bacterial load at 2.5 mg/kg, ILES after 3 days; type: organism-based; conditions: in vivo, other, 72 h, time 3 day
Staphylococcus aureus [27] = test: Antibiofilm activity against methicillin resistant Staphylococcus aureus-lux biofilm in N/TERT-based epidermal model assessed as reduction in luminescence treated at 300 ug/ml topically incubated for 4 hrs by ChemiDoc imaging system; type: functional, organism-based; conditions: dose 300.0 µg/ml
[28] = Toxicity in Staphylococcus epidermidis infected CD-1 mouse assessed as reduction in bacterial load at 2.5 mg/kg, ILES after 3 days; type: organism-based; conditions: in vivo, other, 72 h, time 3 day
Staphylococcus aureus [29] = test: Antimicrobial activity against methicillin resistant Staphylococcus aureus in N/TERT-based epidermal model assessed as reduction in bacterial count in epidermis; type: functional, organism-based
Staphylococcus aureus [30] = test: Antibiofilm activity against methicillin-resistant Staphylococcus aureus USA300 LAC assessed as minimal biofilm eradication concentration required for complete inhibition of bacterial growth by Calgary biofilm device assay; type: functional, MRSA USA300 LAC
[31] = Toxicity in Staphylococcus epidermidis infected CD-1 mouse assessed as reduction in bacterial load at 0.25 mg/kg, ILES after 3 days; type: organism-based; conditions: in vivo, other, 72 h, time 3 day
PBMC [32] = test: as §1; type: functional
[33] = Toxicity in methicillin resistant Staphylococcus aureus USA300 infected CD-1 mouse assessed as reduction in bacterial load at 0.25 mg/kg, ILES after 3 days; type: organism-based; conditions: in vivo, other, 72 h, time 3 day

| SMILES | MBEC (Staphylococcus aureus [1]) [µg/mL] | MBIC (Staphylococcus aureus [3]) [µg/mL] | Activity [4] [%] | MIC (Staphylococcus aureus [8]) [µg/mL] | MIC (Staphylococcus aureus [9]) [µg/mL] | MBIC (Staphylococcus aureus [11]) [µg/mL] | MBEC (Enterococcus faecium [12]) [µg/mL] | Activity (Staphylococcus aureus [13]) | Activity (Staphylococcus aureus [14]) [%] | MIC (Enterococcus faecium [15]) [µg/mL] | Activity [19] [%] | MBIC [20] [µg/mL] | MBEC [21] [µg/mL] | MBIC (Enterococcus faecium [24]) [µg/mL] | MIC [25] [µg/mL] | Activity (Staphylococcus aureus [27]) | MBEC (Staphylococcus aureus [30]) [µg/mL] | other results |
| --- | --- | --- | --- | --- | --- | --- | --- | --- | --- | --- | --- | --- | --- | --- | --- | --- | --- | --- |
| CC[C@H](C)[C@H](NC(=O)[C@H](CCCNC(=N)N)NC(=O)[C@@H](NC(=O)[C@H](C)NC(=O)[C@@H](NC(=O)[C@@H](NC(=O)[C@H](CC(C)C)NC(=O)[C@H](CCCNC(=N)N)NC(=O)[C@@H](NC(=O)[C@H]1NC(=O)[C@H]2NC(=O)[C@H](NC(=O)[C@@H]3NC(=O)[C@H](CC(N)=O)NC(=O)[C@H](NC(=O)[C@@H](CC(C)C)NC)[C@H](O)c4ccc(c(Cl)c4)Oc4cc3cc(c4O[C@@H]3O[C@H](CO)[C@@H](O)[C@H](O)[C@H]3O[C@H]3C[C@](C)(N)[C@H](O)[C@H](C)O3)Oc3ccc(cc3Cl)[C@H]2O)c2ccc(O)c(c2)-c2c(O)cc(O)cc21)C(C)C)[C@@H](C)CC)C(C)C)C(C)C)C(=O)N[C@@H](Cc1c[nH]c2ccccc12)C(=O)N[C@@H](CCCNC(=N)N)C(=O)N[C@@H](CCCNC(=N)N)C(N)=O | 8 | 4 | 40 | 4 (≈ 1.35 µM) | 4 (≈ 1.35 µM) | 4 | 64 | Active | >90 | 32 (≈ 10.8 µM) | 40 | 8 | 8 | 32 | 4 (≈ 1.35 µM) | Active | 8 | Activity (Staphylococcus aureus [2]): Active; Activity (Staphylococcus aureus [5]): Active; Activity (Enterococcus faecium [6]): inactive; Activity (Staphylococcus aureus [7]): inactive; Activity [10]: 80%; Activity (Staphylococcus aureus [16]): 80%; Activity (Staphylococcus aureus [17]): 80%; Activity [18]: 90%; Activity [22]: Non-Toxic; Activity (PBMC [23]): Active; Activity [26]: Non-Toxic; Activity [28]: Non-Toxic; Activity (Staphylococcus aureus [29]): Active |
| CCCCCCCCCCCCCCCC[N+](C)(C)Cc1ccccc1.[Cl-] [CETALKONIUM CHLORIDE] | – | 4 | – | 2 | 2 | 4 | >128 | – | – | > 64 | – | 4 | 16 | >64 | 4 | – | 8 | – |
| CC[C@H](C)[C@H](NC(=O)[C@H](CCCNC(=N)N)NC(=O)[C@@H](NC(=O)[C@H](C)NC(=O)[C@@H](NC(=O)[C@@H](NC(=O)[C@H](CC(C)C)NC(=O)[C@H](CCCNC(=N)N)NC(=O)[C@@H](N)C(C)C)[C@@H](C)CC)C(C)C)C(C)C)C(=O)N[C@@H](Cc1c[nH]c2ccccc12)C(=O)N[C@@H](CCCNC(=N)N)C(=O)N[C@@H](CCCNC(=N)N)C(N)=O (H-VRLIVAVRIWRR-NH2) | – | – | – | 16 (≈ 10.4 µM) | 16 (≈ 10.4 µM) | – | >128 | inactive | >75 | > 64 | 40 | 16 | 16 | >64 | 16 (≈ 10.4 µM) | Active | – | fold change (FC) [28]: > 1000 |
| CN[C@H](CC(C)C)C(=O)N[C@H]1C(=O)N[C@@H](CC(N)=O)C(=O)N[C@H]2C(=O)N[C@H]3C(=O)N[C@H](C(=O)N[C@H](C(=O)O)c4cc(O)cc(O)c4-c4cc3ccc4O)[C@H](O)c3ccc(c(Cl)c3)Oc3cc2cc(c3O[C@@H]2O[C@H](CO)[C@@H](O)[C@H](O)[C@H]2O[C@H]2C[C@](C)(N)[C@H](O)[C@H](C)O2)Oc2ccc(cc2Cl)[C@H]1O [VANCOMYCIN] | >128 | 2 | 5 | – | – | 2 | >128 | inactive | <25 | > 128 | – | 2 | >128 | >128 | – | Active | >128 | Activity [31]: Non-Toxic; Activity (PBMC [32]): inactive; Activity [33]: Non-Toxic |
